This note sets out measurements from ChEMBL document CHEMBL1129525 (J Med Chem, 1996).

The pIC50 is the negative decadic logarithm of the IC50, by convention in mol/L. High values mean a low IC50, low ones a high IC50.

Molecules are shown by their SMILES. pIC50: −log10 of the molar value.

Experiment [1] concerns the target T1, Bifunctional dihydrofolate reductase-thymidylate synthase (Toxoplasma gondii, UniProt Q07422).
T1 sequence (Q07422 whole entry): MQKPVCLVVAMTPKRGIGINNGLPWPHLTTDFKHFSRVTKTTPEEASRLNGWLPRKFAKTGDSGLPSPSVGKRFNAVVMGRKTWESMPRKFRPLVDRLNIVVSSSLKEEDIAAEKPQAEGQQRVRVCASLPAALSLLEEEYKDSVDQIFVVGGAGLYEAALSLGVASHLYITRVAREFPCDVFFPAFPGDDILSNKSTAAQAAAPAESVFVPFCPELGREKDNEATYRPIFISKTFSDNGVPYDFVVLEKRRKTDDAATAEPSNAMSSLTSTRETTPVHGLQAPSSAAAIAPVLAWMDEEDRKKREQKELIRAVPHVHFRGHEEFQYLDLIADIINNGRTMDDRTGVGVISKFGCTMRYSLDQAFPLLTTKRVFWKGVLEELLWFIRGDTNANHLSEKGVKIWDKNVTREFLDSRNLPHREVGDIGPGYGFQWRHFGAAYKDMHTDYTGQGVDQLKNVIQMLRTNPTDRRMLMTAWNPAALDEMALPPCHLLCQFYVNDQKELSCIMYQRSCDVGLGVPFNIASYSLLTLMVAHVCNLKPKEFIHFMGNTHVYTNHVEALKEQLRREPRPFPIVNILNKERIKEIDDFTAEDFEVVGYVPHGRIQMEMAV
Description: Inhibitory activity against Toxoplasma gondii dihydrofolate reductase

Experiment [2] has as its target T2, Dihydrofolate reductase (Rattus norvegicus, UniProt Q920D2).
T2 sequence (Q920D2 whole entry): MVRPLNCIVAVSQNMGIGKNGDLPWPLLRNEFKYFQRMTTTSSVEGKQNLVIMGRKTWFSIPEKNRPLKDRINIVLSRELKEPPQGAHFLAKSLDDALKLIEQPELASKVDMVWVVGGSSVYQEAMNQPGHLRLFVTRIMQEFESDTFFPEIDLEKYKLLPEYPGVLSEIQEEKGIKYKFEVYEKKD
Description: Inhibitory activity against rat liver dihydrofolate reductase

The test system of another experiment is Toxoplasma gondii. The experiment can be described thus: Inhibition of Toxoplasma gondii cell growth. The class given is functional, organism-based.
The target of experiment [3] is T3, Dihydrofolate reductase (Pneumocystis carinii, UniProt P16184).
T3 sequence (P16184 whole entry): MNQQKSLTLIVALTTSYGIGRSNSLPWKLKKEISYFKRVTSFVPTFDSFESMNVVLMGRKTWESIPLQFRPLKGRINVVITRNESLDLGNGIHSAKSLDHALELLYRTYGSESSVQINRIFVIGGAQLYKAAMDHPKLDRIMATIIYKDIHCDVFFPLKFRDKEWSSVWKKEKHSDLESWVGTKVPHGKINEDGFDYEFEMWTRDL
Description: Inhibitory activity against Pneumocystis carinii dihydrofolate reductase

In the case of `Nc1nc(N)c2nc(CSc3cccc4ccccc34)cnc2n1`, the pIC50 is 5.15 in experiment [1], 5.09 against Dihydrofolate reductase [2], 5.52 in the experiment with Toxoplasma gondii and 5.38 against Dihydrofolate reductase [3].

With `COc1ccc(OC)c(N(C)Cc2cnc3nc(N)nc(N)c3n2)c1`, the pIC50 in experiment [1] was 6.68; against Dihydrofolate reductase [2] it was 6.33; with Toxoplasma gondii, 5.80; at Dihydrofolate reductase [3], 5.41.

Consider `Cc1c(CSc2ccc(Cl)cc2)cnc2nc(N)nc(N)c12`, for which the pIC50 in experiment [1] was 7.05; against Dihydrofolate reductase [2], 6.43; in the experiment on Toxoplasma gondii, 6.52; against Dihydrofolate reductase [3], 6.44.

For `Nc1nc(N)c2cc(CNc3cccc4ccccc34)cnc2n1`, the pIC50 in experiment [1] was 6.82; against Dihydrofolate reductase [2], 6.64; in the experiment on Toxoplasma gondii, 6.10; on Dihydrofolate reductase [3] it was 6.59.

For the molecule `COc1ccc(OC)c(NCc2cnc3nc(N)nc(N)c3c2C)c1`, the pIC50 in experiment [1] is 7.85; on Dihydrofolate reductase [2] it was 8.00; with Toxoplasma gondii, 6.70; at Dihydrofolate reductase [3] it was 7.96.

As to `Nc1nc(N)c2cc(CNc3ccc(Cl)cc3)ccc2n1`, the pIC50 in experiment [1] was 7.12; against Dihydrofolate reductase [2], 7.14; with Toxoplasma gondii, 8.00; against Dihydrofolate reductase [3], 6.22.

As to `Cc1cccc(SCc2cnc3nc(N)nc(N)c3c2C)c1`, the pIC50 in experiment [1] is 7.19; against Dihydrofolate reductase [2], 6.48; in the experiment with Toxoplasma gondii, 6.70; at Dihydrofolate reductase [3] it was 6.77.

Turning to `COc1cc(NCc2cnc3nc(N)nc(N)c3c2)cc(OC)c1OC`, the pIC50 in experiment [1] was 6.89; against Dihydrofolate reductase [2], 6.09; in the experiment on Toxoplasma gondii, 4.82.

Consider `COc1cccc(SCc2cnc3nc(N)nc(N)c3n2)c1`, for which the pIC50 in experiment [1] is 5.80; on Dihydrofolate reductase [2], 5.11; in the experiment on Toxoplasma gondii it was 5.30; at Dihydrofolate reductase [3], 5.00.

Take `COc1ccc(NCc2cnc3nc(N)nc(N)c3c2C)c(C)c1`: the pIC50 in experiment [1] is 8.14; at Dihydrofolate reductase [2], 7.54; with Toxoplasma gondii, 6.22; on Dihydrofolate reductase [3], 6.77.

Take `Cc1ccc(SCc2cnc3nc(N)nc(N)c3n2)cc1`: the pIC50 in experiment [1] is 4.82; against Dihydrofolate reductase [2], 4.59; in the experiment with Toxoplasma gondii, 5.30.

Regarding `COc1ccc(OC)c(NCc2ccc3nc(N)nc(N)c3c2)c1`, the pIC50 was 6.85 in experiment [1], 6.34 on Dihydrofolate reductase [2], 6.22 in the experiment on Toxoplasma gondii and 6.12 against Dihydrofolate reductase [3].

Take `COc1cc(NCc2cnc3nc(N)nc(N)c3c2C)cc(OC)c1OC`: the pIC50 was 8.27 at Dihydrofolate reductase [2] and 6.00 in the experiment on Toxoplasma gondii.

Take `COc1ccc(SCc2cnc3nc(N)nc(N)c3c2C)cc1`: the pIC50 in the experiment on Toxoplasma gondii is 6.52; against Dihydrofolate reductase [3] it was 6.25.

Turning to `COc1cc(NCc2cnc3nc(N)nc(N)c3n2)cc(OC)c1`, the negative-log IC50 (pIC50) in experiment [1] is 6.96; against Dihydrofolate reductase [2], 6.06; with Toxoplasma gondii it was 6.00; against Dihydrofolate reductase [3], 6.02.

`Nc1nc(N)c2nc(CNc3cccc4ccccc34)cnc2n1`: the results for the pIC50 (in experiment [1]; on Dihydrofolate reductase [2]; with Toxoplasma gondii) were 7.12, 5.90 and 6.60, respectively.

With `Nc1nc(N)c2nc(CCc3cccc4ccccc34)cnc2n1`, the pIC50 in experiment [1] was 6.09; against Dihydrofolate reductase [2], 4.22; in the experiment with Toxoplasma gondii it was 6.00.

Take `Nc1nc(N)c2nc(CSc3ccccc3)cnc2n1`: the pIC50 in the experiment with Toxoplasma gondii was 5.00; against Dihydrofolate reductase [3], 5.02.

Consider `COc1ccc(N(C)Cc2cnc3nc(N)nc(N)c3c2C)cc1OC`, for which the pIC50 in experiment [1] was 8.54; on Dihydrofolate reductase [2], 8.28; with Toxoplasma gondii, 6.82; at Dihydrofolate reductase [3], 7.54.

Take `COc1ccc(OC)c(CCc2cnc3nc(N)nc(N)c3c2C)c1`: the negative logarithm of the IC50 (pIC50) in experiment [1] was 8.10; on Dihydrofolate reductase [2], 6.11; in the experiment with Toxoplasma gondii, 7.00; against Dihydrofolate reductase [3], 6.47.

With `COc1ccc(OC)c(Cc2cnc3nc(N)nc(N)c3c2C)c1` [PIRITREXIM], the pIC50 in the experiment on Toxoplasma gondii was 7.70.

On to `CCc1nc(N)nc(N)c1-c1ccc(Cl)cc1` [PYRIMETHAMINE], for which the pIC50 with Toxoplasma gondii was 6.40.
